Experimental data: patent publication US20100267561A1, “HERBICIDAL PYRIDAZINONE DERIVATIVES” (priority 2007, published 2010)
Where two headings read alike, the source gives them in different places.

Tests used:
Assay type in all cases: in vivo
wild oat (Avena fatua) = test: Test B pre-/postemergence plant response; conditions: Avena fatua, read-out: Plant response rating, Oat, Wild; for pest or weed control at 250 g/ha: 250 g ai/ha
Method in brief: (§1)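 Preemergence and postemergence (plants 2-18 cm, 1- to 4-leaf stage) applications used test chemicals in a non-phytotoxic solvent with surfactant. Plants were held in a greenhouse 13 to 15 days, then rated visually against controls on a 0-100 scale (0 no effect, 100 complete control).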

[1] = test system: johnsongrass (Sorghum halepense); test: Test B pre-/postemergence plant response; conditions: Sorghum halepense, read-out: Plant response rating, Johnsongrass; for pest or weed control at 31 g/ha: 31 g ai/ha, 100 complete control; for pest or weed control at 62 g/ha: 62 g ai/ha; for pest or weed control at 62 g/ha / pest or weed control at 125 g/ha / pest or weed control at 250 g/ha: scale 0 to 100; for pest or weed control at 125 g/ha: 125 g ai/ha; for pest or weed control at 250 g/ha: 250 g ai/ha
Method in brief: as §1

[2] = test system: woolly cupgrass (Eriochloa villosa); test: Test B pre-/postemergence plant response; conditions: Eriochloa villosa, read-out: Plant response rating, Cupgrass, Woolly; for pest or weed control at 31 g/ha: 31 g ai/ha, 100 complete control; for pest or weed control at 62 g/ha: 62 g ai/ha; for pest or weed control at 62 g/ha / pest or weed control at 125 g/ha / pest or weed control at 250 g/ha: scale 0 to 100; for pest or weed control at 125 g/ha: 125 g ai/ha; for pest or weed control at 250 g/ha: 250 g ai/ha
Method in brief: as §1

[3] = test system: common (oilseed) sunflower (Helianthus annuus); test: Test B pre-/postemergence plant response; conditions: Helianthus annuus, pre-emergence, Preemergence, read-out: Plant response rating, Sunflower
Method in brief: as §1

[4] = test system: giant foxtail (Setaria faberii); test: Test B pre-/postemergence plant response; conditions: Setaria faberi, read-out: Plant response rating, Foxtail, Giant; for pest or weed control at 31 g/ha: 31 g ai/ha, 100 complete control; for pest or weed control at 62 g/ha: 62 g ai/ha; for pest or weed control at 62 g/ha / pest or weed control at 125 g/ha / pest or weed control at 250 g/ha: scale 0 to 100; for pest or weed control at 125 g/ha: 125 g ai/ha; for pest or weed control at 250 g/ha: 250 g ai/ha
Method in brief: as §1

[5] = test system: pigweed (Amaranthus retroflexus); test: Test B pre-/postemergence plant response; conditions: Amaranthus retroflexus, read-out: Plant response rating, Pigweed; for pest or weed control at 62 g/ha: 62 g ai/ha; for pest or weed control at 62 g/ha / pest or weed control at 125 g/ha / pest or weed control at 250 g/ha: scale 0 to 100; for pest or weed control at 125 g/ha: 125 g ai/ha; for pest or weed control at 250 g/ha: 250 g ai/ha
Method in brief: as §1

[6] = test system: ducksalad (Heteranthera limosa); test: Test B flooded paddy test plant response; conditions: Heteranthera limosa, read-out: Plant response rating, Ducksalad
Method in brief: (§2)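 Compounds were added directly to paddy water over 2-leaf-stage plants in pots flooded 3 cm above soil, water depth maintained. Visual injury scored against controls after 13 to 15 days in greenhouse, 0 (none) to 100 (complete control); dash indicates no result.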

rice (Oryza sativa) = test: Test B flooded paddy test plant response; conditions: Oryza sativa, read-out: Plant response rating, Rice
Method in brief: as §2

[7] = post-emergence, Postemergence, scale 0 to 100, 0 no effect
[8] = pre-emergence, Preemergence, 0 to 100 scale, 0 no effect
[9] = Flood (flooded paddy test), 62 g ai/ha, scale 0 to 100, 0 no effect, 100 complete control
[10] = Flood (flooded paddy test), 125 g ai/ha, scale 0 to 100, 0 no effect, 100 complete control
[11] = Flood (flooded paddy test), 250 g ai/ha, scale 0 to 100, 0 no effect, 100 complete control
[12] = Flood, 31 g ai/ha, scale 0 to 100

Compound: Cc1cc(-c2ccc(C(F)(F)F)cc2)nn1-c1c(O)cnn(C)c1=O [Compound 1, 5-hydroxy-2-methyl-4-[5-methyl-3-[4-(trifluoromethyl)phenyl]-1H-pyrazol-1-yl]-3(2H)-pyridazinone]
- pest or weed control at 250 g/ha (wild oat (Avena fatua); post-emergence, Postemergence, scale 0 to 100): 100%
- pest or weed control at 31 g/ha (wild oat (Avena fatua); pre-emergence, Preemergence, 31 g ai/ha, 0 to 100 scale, 0 no effect, 100 complete control): 60%
- pest or weed control at 62 g/ha (wild oat (Avena fatua); pre-emergence, Preemergence, 62 g ai/ha, scale 0 to 100): 85%
- pest or weed control at 125 g/ha (wild oat (Avena fatua); pre-emergence, Preemergence, 125 g ai/ha, scale 0 to 100): 90%
- pest or weed control at 250 g/ha (wild oat (Avena fatua); pre-emergence, Preemergence, scale 0 to 100): 98%
- pest or weed control at 31 g/ha [1, 7]: 60%
- pest or weed control at 62 g/ha ([1]; post-emergence, Postemergence): 90%
- pest or weed control at 125 g/ha ([1]; post-emergence, Postemergence): 100%
- pest or weed control at 250 g/ha ([1]; post-emergence, Postemergence): 100%
- pest or weed control at 31 g/ha [1, 8]: 90%
- pest or weed control at 62 g/ha ([1]; pre-emergence, Preemergence): 95%
- pest or weed control at 125 g/ha ([1]; pre-emergence, Preemergence): 100%
- pest or weed control at 250 g/ha ([1]; pre-emergence, Preemergence): 100%
- pest or weed control at 31 g/ha [2, 7]: 95%
- pest or weed control at 62 g/ha ([2]; post-emergence, Postemergence): 100%
- pest or weed control at 125 g/ha ([2]; post-emergence, Postemergence): 100%
- pest or weed control at 250 g/ha ([2]; post-emergence, Postemergence): 100%
- pest or weed control at 31 g/ha [2, 8]: 85%
- pest or weed control at 62 g/ha ([2]; pre-emergence, Preemergence): 100%
- pest or weed control at 125 g/ha ([2]; pre-emergence, Preemergence): 100%
- pest or weed control at 250 g/ha ([2]; pre-emergence, Preemergence): 100%
- pest or weed control at 31 g/ha ([3]; 31 g ai/ha, 0 to 100 scale, 0 no effect, 100 complete control): 0%
- pest or weed control at 62 g/ha ([3]; 62 g ai/ha, scale 0 to 100): 0%
- pest or weed control at 125 g/ha ([3]; 125 g ai/ha, scale 0 to 100): 0%
- pest or weed control at 250 g/ha ([3]; 250 g ai/ha, scale 0 to 100): 60%
- pest or weed control at 31 g/ha [4, 7]: 100%
- pest or weed control at 62 g/ha ([4]; post-emergence, Postemergence): 100%
- pest or weed control at 125 g/ha ([4]; post-emergence, Postemergence): 100%
- pest or weed control at 250 g/ha ([4]; post-emergence, Postemergence): 100%
- pest or weed control at 31 g/ha [4, 8]: 100%
- pest or weed control at 62 g/ha ([4]; pre-emergence, Preemergence): 100%
- pest or weed control at 125 g/ha ([4]; pre-emergence, Preemergence): 100%
- pest or weed control at 250 g/ha ([4]; pre-emergence, Preemergence): 100%
- pest or weed control at 31 g/ha ([5]; post-emergence, Postemergence, 31 g ai/ha, scale 0 to 100, 0 no effect, 100 complete control): 0%
- pest or weed control at 62 g/ha ([5]; post-emergence, Postemergence): 0%
- pest or weed control at 125 g/ha ([5]; post-emergence, Postemergence): 0%
- pest or weed control at 250 g/ha ([5]; post-emergence, Postemergence): 40%
- pest or weed control at 62 g/ha ([5]; pre-emergence, Preemergence): 0%
- pest or weed control at 125 g/ha ([5]; pre-emergence, Preemergence): 0%
- pest or weed control at 250 g/ha ([5]; pre-emergence, Preemergence): 0%
- pest or weed control at 62 g/ha [6, 9]: 0%
- pest or weed control at 125 g/ha [6, 10]: 0%
- pest or weed control at 250 g/ha [6, 11]: 30%
- pest or weed control at 31 g/ha [6, 12]: 0%
- plant injury at 62 g/ha (rice (Oryza sativa); [9]): 0%
- plant injury at 125 g/ha (rice (Oryza sativa); [10]): 0%
- plant injury at 250 g/ha (rice (Oryza sativa); [11]): 50%
- plant injury at 31 g/ha (rice (Oryza sativa); [12]): 0%
